{"source": "paper PMC9190012", "about": "“Heparin activation of protein Z-dependent protease inhibitor (ZPI) allosterically blocks protein Z activation through an extended heparin-binding site” (The Journal of Biological Chemistry, 2022)", "key": {"WT ZPI": {"target": "T1, WT ZPI (Homo sapiens, UniProt Q9UK55)", "T1 construct": "made in house; host or cells: Escherichia coli", "T1 sequence (Q9UK55 22-444)": "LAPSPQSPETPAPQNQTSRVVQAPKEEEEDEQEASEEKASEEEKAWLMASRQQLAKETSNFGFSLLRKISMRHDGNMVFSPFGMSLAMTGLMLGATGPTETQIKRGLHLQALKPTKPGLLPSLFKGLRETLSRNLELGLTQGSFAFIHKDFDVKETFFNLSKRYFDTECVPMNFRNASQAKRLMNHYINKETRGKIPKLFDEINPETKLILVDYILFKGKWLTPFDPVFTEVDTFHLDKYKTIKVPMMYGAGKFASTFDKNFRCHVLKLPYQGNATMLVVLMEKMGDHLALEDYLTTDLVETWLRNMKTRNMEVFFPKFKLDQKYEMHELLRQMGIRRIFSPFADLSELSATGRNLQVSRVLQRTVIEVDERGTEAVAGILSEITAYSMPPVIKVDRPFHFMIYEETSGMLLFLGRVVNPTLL", "assay": "Direct heparin binding titrations monitored by intrinsic protein fluorescence quenching", "experimental": "(§1) Fluorescence emission spectra of NBD-ZPI (50–100 nM) were measured in the absence or the presence of PZ and heparin in 20 mM Tris buffer (pH 7.4), 0.2 M NaCl, 0.1% PEG 8000, 1 mg/ml bovine serum albumin (BSA), and 2.5 mM CaCl2 with an SLM 8000 spectrofluorometer with excitation at 480 nm over the emission range of 500 to 600 nm. Intrinsic protein fluorescence of WT and mutant ZPIs (200 nM to 1 μM) was measured in the same buffer without BSA, with excitation at 280 nm over the emission range of 300 to 400 nm. Emission was monitored in 5-nm steps with 5 to 10 s of integrations per step. Spectra were obtained in triplicate and averaged. Buffer, buffer plus PZ, or buffer plus heparin background spectra were subtracted, and dilution corrections were made for added PZ or heparin (<10%). Direct equilibrium binding of heparin to ZPI was measured by titrations of unlabeled WT and variant ZPIs (0.2–1 μM) with heparin monitored by the quenching of intrinsic protein fluorescence accompanying heparin binding at excitation and emission wavelengths of 280 and 340 nm, respectively. Titrations were computer fit by the aforementioned quadratic binding equation with [H]o replacing [PZ]o and KD,H replacing KD,PZapp."}, "[1]": {"target": "T2, helix H site mutant ZPI (K260A/R263A/R305A/K308A/R310A) (Homo sapiens, UniProt Q9UK55, K281A/K329A/R284A/R326A/R331A)", "T2 construct": "made in house; host or cells: Escherichia coli", "T2 sequence (Q9UK55 22-444 K281A/R284A/R326A/K329A/R331A)": "T1 sequence (Q9UK55 22-444) with K260A, R263A, R305A, K308A, R310A", "assay": "Direct heparin binding titrations monitored by intrinsic protein fluorescence quenching", "conditions": "200 nM helix H site mutant ZPI", "experimental": "as §1"}}, "note": "Numbering of substitutions follows the chain as printed.", "data": [{"smiles": "CO[C@H]1O[C@H](COS(=O)(=O)O)[C@@H](O[C@@H]2O[C@@H](C(=O)O)[C@@H](O[C@H]3O[C@H](COS(=O)(=O)O)[C@@H](O[C@@H]4O[C@H](C(=O)O)[C@@H](O[C@H]5O[C@H](COS(=O)(=O)O)[C@@H](O)[C@H](O)[C@H]5NS(=O)(=O)O)[C@H](O)[C@H]4O)[C@H](OS(=O)(=O)O)[C@H]3NS(=O)(=O)O)[C@H](O)[C@H]2OS(=O)(=O)O)[C@H](O)[C@H]1NS(=O)(=O)O", "note": "[H5, fondaparinux]", "values": [{"measurement": "Kd", "setting": "WT ZPI; 200 nM WT ZPI, 0.2 M NaCl buffer, pH 7.4, 25 °C", "result": "123 ± 23", "unit": "µM"}, {"measurement": "maximal quenching of protein fluorescence", "setting": "WT ZPI; fit of titration by quadratic binding equation", "result": "−15 ± 1", "unit": "%"}, {"measurement": "quenching of the protein fluorescence emission spectrum", "setting": "WT ZPI; near saturating levels of heparin (400 μM H5 or 4 μM H72)", "result": "15 to 20", "unit": "%"}, {"measurement": "Kd", "setting": "[1]", "result": "142 ± 42", "unit": "µM"}]}]}
